Laboratory results published in ChEMBL document CHEMBL4257083, “Novel cytochrome p450 inhibitors and their method of use” (2016).

Legend:
[1] = target: T1, Cytochrome P450 11B1, mitochondrial (Homo sapiens, UniProt P15538); assay: Inhibition of recombinant CYP11B1 (unknown origin) expressed in human AD293 cells using 11-deoxycortisol as substrate pretreated for 60 mins followed by substrate addition and measured after 12 hrs by LC/MS analysis; format: cell-based
T1 sequence (P15538 whole entry): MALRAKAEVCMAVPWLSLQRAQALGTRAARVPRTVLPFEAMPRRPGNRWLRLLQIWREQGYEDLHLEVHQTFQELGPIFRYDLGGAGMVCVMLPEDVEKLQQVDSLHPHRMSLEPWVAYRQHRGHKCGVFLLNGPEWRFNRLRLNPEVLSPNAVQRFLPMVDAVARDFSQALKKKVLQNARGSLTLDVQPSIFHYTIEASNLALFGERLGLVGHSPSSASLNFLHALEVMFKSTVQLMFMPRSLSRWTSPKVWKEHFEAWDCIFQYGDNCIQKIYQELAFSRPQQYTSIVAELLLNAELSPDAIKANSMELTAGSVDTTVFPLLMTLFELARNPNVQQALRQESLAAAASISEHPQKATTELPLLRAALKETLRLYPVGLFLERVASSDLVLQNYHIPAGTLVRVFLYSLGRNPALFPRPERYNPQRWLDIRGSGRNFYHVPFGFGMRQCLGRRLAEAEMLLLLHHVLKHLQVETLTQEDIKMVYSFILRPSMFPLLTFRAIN

Steroid 21-hydroxylase = target: T2, Steroid 21-hydroxylase (Homo sapiens, UniProt P08686); assay: Inhibition of recombinant CYP21 (unknown origin) expressed in human AD293 cells using 17alpha-hydroxyprogesterone as substrate pretreated for 60 mins followed by substrate addition and measured after 45 mins by LC/MS analysis; format: cell-based
T2 sequence (P08686 whole entry): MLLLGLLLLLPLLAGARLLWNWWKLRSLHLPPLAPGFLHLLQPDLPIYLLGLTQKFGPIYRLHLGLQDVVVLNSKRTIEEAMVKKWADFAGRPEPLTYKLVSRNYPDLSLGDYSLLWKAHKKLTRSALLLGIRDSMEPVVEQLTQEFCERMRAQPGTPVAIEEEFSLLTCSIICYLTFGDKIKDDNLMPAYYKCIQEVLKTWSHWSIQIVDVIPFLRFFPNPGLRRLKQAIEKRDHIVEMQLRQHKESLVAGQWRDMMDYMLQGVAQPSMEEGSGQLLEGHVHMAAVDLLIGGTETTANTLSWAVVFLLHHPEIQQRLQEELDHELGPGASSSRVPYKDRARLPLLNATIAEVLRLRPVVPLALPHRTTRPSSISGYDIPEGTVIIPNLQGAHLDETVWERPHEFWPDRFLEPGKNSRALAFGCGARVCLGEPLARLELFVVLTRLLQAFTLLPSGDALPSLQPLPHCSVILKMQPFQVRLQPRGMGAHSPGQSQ

[2] = target: T3, Steroid 17-alpha-hydroxylase/17,20 lyase (Homo sapiens, UniProt P05093); assay: Inhibition of recombinant CYP17 (unknown origin) expressed in human AD293 cells using 21[3H]-17alpha-hydroxyl-pregnenolone as substrate pretreated for 60 mins followed by substrate addition and measured after 4 hrs by Topcount method; format: cell-based
T3 sequence (P05093 whole entry): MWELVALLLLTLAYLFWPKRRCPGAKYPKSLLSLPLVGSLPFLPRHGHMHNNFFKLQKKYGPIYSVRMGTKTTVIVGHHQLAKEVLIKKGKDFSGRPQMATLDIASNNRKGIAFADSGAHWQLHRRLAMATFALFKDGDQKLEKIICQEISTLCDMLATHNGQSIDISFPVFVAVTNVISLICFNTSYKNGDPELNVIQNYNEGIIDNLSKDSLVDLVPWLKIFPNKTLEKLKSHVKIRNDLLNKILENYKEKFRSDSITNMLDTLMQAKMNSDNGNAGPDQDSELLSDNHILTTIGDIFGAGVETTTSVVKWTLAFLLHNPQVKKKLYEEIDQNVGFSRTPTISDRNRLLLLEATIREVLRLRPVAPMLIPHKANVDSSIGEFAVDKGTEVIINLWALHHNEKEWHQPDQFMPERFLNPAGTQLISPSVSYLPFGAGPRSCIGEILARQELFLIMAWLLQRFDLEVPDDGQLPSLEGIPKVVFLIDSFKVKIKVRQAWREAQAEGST

[3] = Oral bioavailability in guinea pig at 10 mg/kg; format: ADME, organism-based, Cavia porcellus; conditions: in vivo
[4] = Tmax in guinea pig at 10 mg/kg, po; format: ADME, organism-based, Cavia porcellus; conditions: in vivo

With N#CCS(=O)(=O)N1CCN(c2ccc(/C=C/c3cc(F)cc(Cn4ccnc4)c3)cc2)CC1 the IC50 [1] was 73 nM, the IC50 (Steroid 21-hydroxylase) was at least 10000 nM and the IC50 [2] was 86 nM.
For CS(=O)(=O)N1CCN(c2ccc(/C=C/c3cc(F)cc(Cn4ccnc4)c3)cc2)CC1, the IC50 [1] was 49 nM, the IC50 (Steroid 21-hydroxylase) was at least 10000 nM and the IC50 [2] was 58 nM.
CS(=O)(=O)N1CCN(c2ccc(/C=C/c3cc(Cl)cc(-c4ccncc4)c3)cc2)CC1 showed an IC50 [1] of 450 nM, an IC50 (Steroid 21-hydroxylase) of 840 nM and an IC50 [2] of 5 nM.
In the case of CCS(=O)(=O)N1CCN(c2ccc(/C=C/c3cc(F)cc(-c4ccncc4)c3)cc2)CC1, the bioavailability [3] is reported as 22.3% and the Tmax [4] is reported as 5.33 h.
Work on CS(=O)(=O)N1CCN(c2ccc(/C=C/c3cc(Cl)cc(Cn4ccnc4)c3)cc2)CC1 yielded an IC50 [1] of 24 nM, an IC50 (Steroid 21-hydroxylase) of 2200 nM and an IC50 [2] of 180 nM.
CS(=O)(=O)N1CCN(c2ccc(/C=C/c3cc(F)cc(-c4ccncc4)c3)cc2)CC1 gave an IC50 [1] of 200 nM, an IC50 (Steroid 21-hydroxylase) of 740 nM and an IC50 [2] of 5 nM.
With N=C(N)N1CCN(c2ccc(/C=C/c3cc(F)cc(Cn4ccnc4)c3)cc2)CC1 the IC50 [1] was 1400 nM, the IC50 (Steroid 21-hydroxylase) was at least 10000 nM and the IC50 [2] was 1200 nM.
Molecule Clc1cc(/C=C/c2ccc(N3CCN(C4=NCCO4)CC3)cc2)cc(-c2ccncc2)c1 has an IC50 [1] of 3500 nM, an IC50 (Steroid 21-hydroxylase) of 1200 nM and an IC50 [2] of 5 nM.
O=S(=O)(C1CC1)N1CCN(c2ccc(/C=C/c3cc(F)cc(-c4ccncc4)c3)cc2)CC1 gave a Tmax [4] of 8 h.
O=S(=O)(c1c[nH]cn1)N1CCN(c2ccc(/C=C/c3cc(Cl)cc(Cn4ccnc4)c3)cc2)CC1 showed an IC50 [1] of 7 nM, an IC50 (Steroid 21-hydroxylase) of at least 10000 nM and an IC50 [2] of 6.2 nM.
In the case of CC(C)S(=O)(=O)N1CCN(c2ccc(/C=C/c3cc(Cl)cc(-c4ccncc4)c3)cc2)CC1, the IC50 [1] is reported as 58 nM, the IC50 (Steroid 21-hydroxylase) is reported as 565 nM and the IC50 [2] is reported as 5 nM.
CC(C)S(=O)(=O)N1CCN(c2ccc(/C=C/c3cc(F)cc(Cn4ccnc4)c3)cc2)CC1 showed an IC50 [1] of 5 nM, an IC50 (Steroid 21-hydroxylase) of 700 nM and an IC50 [2] of 39 nM.
In the case of O=S(=O)(C1CC1)N1CCN(c2ccc(/C=C/c3cc(Cl)cc(Cn4ccnc4)c3)cc2)CC1, the IC50 [1] is reported as 22 nM and the IC50 (Steroid 21-hydroxylase) is reported as 340 nM.
Molecule Fc1cc(/C=C/c2ccc(N3CCN(C4=NCCCO4)CC3)cc2)cc(Cn2ccnc2)c1 has an IC50 [1] of 17 nM, an IC50 (Steroid 21-hydroxylase) of 1000 nM and an IC50 [2] of 42 nM.
In the case of N=C(N)N1CCN(c2ccc(/C=C/c3cc(Cl)cc(Cn4ccnc4)c3)cc2)CC1, the IC50 [1] is reported as 1300 nM, the IC50 (Steroid 21-hydroxylase) is reported as at least 10000 nM and the IC50 [2] is reported as 2500 nM.
Molecule N=C(N)N1CCN(c2ccc(/C=C/c3cc(F)cc(-c4ccncc4)c3)cc2)CC1 has an IC50 [1] of 3600 nM, an IC50 (Steroid 21-hydroxylase) of at least 10000 nM and an IC50 [2] of 18 nM.
For O=S(=O)(N1CCN(c2ccc(/C=C/c3cc(F)cc(-c4ccncc4)c3)cc2)CC1)C(F)(F)F, the bioavailability [3] was 22.1% and the Tmax [4] was 3.33 h.
With CCS(=O)(=O)N1CCN(c2ccc(/C=C/c3cc(Cl)cc(Cn4ccnc4)c3)cc2)CC1 the IC50 (Steroid 21-hydroxylase) was 540 nM and the IC50 [2] was 24 nM.
In the case of O=S(=O)(C1CC1)N1CCN(c2ccc(/C=C/c3cc(Cl)cc(-c4ccncc4)c3)cc2)CC1, the IC50 [1] is reported as 51 nM, the IC50 (Steroid 21-hydroxylase) is reported as 416 nM and the IC50 [2] is reported as 5 nM.
Work on Clc1cc(/C=C/c2ccc(N3CCN(C4=NCCO4)CC3)cc2)cc(Cn2ccnc2)c1 yielded an IC50 [1] of 130 nM, an IC50 (Steroid 21-hydroxylase) of 3500 nM and an IC50 [2] of 100 nM.
Fc1cc(/C=C/c2ccc(N3CCN(C4=NCCO4)CC3)cc2)cc(Cn2ccnc2)c1 gave an IC50 [1] of 130 nM, an IC50 (Steroid 21-hydroxylase) of at least 10000 nM and an IC50 [2] of 117 nM.
Molecule Fc1cc(/C=C/c2ccc(N3CCN(C4=NCCO4)CC3)cc2)cc(-c2ccncc2)c1 has an IC50 [1] of 1800 nM, an IC50 (Steroid 21-hydroxylase) of 1200 nM and an IC50 [2] of 5 nM.
With CC(=O)N1CCN(c2ccc(/C=C/c3cc(Cl)cc(Cn4ccnc4)c3)cc2)CC1 the IC50 [2] was 42 nM.
CC(=O)N1CCN(c2ccc(/C=C/c3cc(F)cc(-c4ccncc4)c3)cc2)CC1 showed an IC50 [1] of 1200 nM, an F [3] of 184.21% and an IC50 (Steroid 21-hydroxylase) of 430 nM. The Tmax [4] was 3 h and the IC50 [2] was 4.6 to 5 nM.
With N=C(N)N1CCN(c2ccc(/C=C/c3cc(Cl)cc(-c4ccncc4)c3)cc2)CC1 the IC50 [1] was 10000 nM and the IC50 (Steroid 21-hydroxylase) was at least 10000 nM.
CC(C)S(=O)(=O)N1CCN(c2ccc(/C=C/c3cc(Cl)cc(Cn4ccnc4)c3)cc2)CC1 gave an IC50 [1] of 240 nM, an IC50 (Steroid 21-hydroxylase) of 85 nM and an IC50 [2] of 38 nM.
For CC(=O)N1CCN(c2ccc(CCc3cc(F)cc(-c4ccncc4)c3)cc2)CC1, the IC50 [1] was 1.4 nM, the IC50 (Steroid 21-hydroxylase) was at least 10000 nM and the IC50 [2] was 21 nM.
Work on CC(=O)N1CCN(c2ccc(/C=C/c3cc(O)cc(-n4ccnc4)c3)cc2)CC1 yielded an IC50 [1] of 4800 nM, an IC50 (Steroid 21-hydroxylase) of 1950 nM and an IC50 [2] of 220 nM.
For CC(=O)N1CCN(c2ccc(/C=C/c3cc(O)cc(Cn4ccnc4)c3)cc2)CC1, the IC50 [1] was 51 nM, the IC50 (Steroid 21-hydroxylase) was 2400 nM and the IC50 [2] was 88 nM.
Work on O=S(=O)(CCCCl)N1CCN(c2ccc(/C=C/c3cc(Cl)cc(Cn4ccnc4)c3)cc2)CC1 yielded an IC50 [1] of 13 nM, an IC50 (Steroid 21-hydroxylase) of 2870 nM and an IC50 [2] of 31 nM.
For O=[N+]([O-])c1cccc(S(=O)(=O)N2CCN(c3ccc(/C=C/c4cc(Cl)cc(Cn5ccnc5)c4)cc3)CC2)c1, the IC50 [1] was 4 nM, the IC50 (Steroid 21-hydroxylase) was 160 nM and the IC50 [2] was 9 nM.
Oc1cc(/C=C/c2ccc(Br)cc2)cc(-n2ccnc2)c1 showed an IC50 [1] of 1400 nM, an IC50 (Steroid 21-hydroxylase) of at least 10000 nM and an IC50 [2] of 1200 nM.
In the case of N#Cc1cccc(S(=O)(=O)N2CCN(c3ccc(/C=C/c4cc(Cl)cc(Cn5ccnc5)c4)cc3)CC2)c1, the IC50 [1] is reported as 4 nM, the IC50 (Steroid 21-hydroxylase) is reported as 1200 nM and the IC50 [2] is reported as 21 nM.
In the case of O=[N+]([O-])c1cc(S(=O)(=O)N2CCN(c3ccc(/C=C/c4cc(Cl)cc(Cn5ccnc5)c4)cc3)CC2)ccc1Cl, the IC50 [1] is reported as 57 nM, the IC50 (Steroid 21-hydroxylase) is reported as at least 10000 nM and the IC50 [2] is reported as 106 nM.
Work on O=C(c1cccc([N+](=O)[O-])c1)N1CCN(c2ccc(/C=C/c3cc(Cl)cc(Cn4ccnc4)c3)cc2)CC1 yielded an IC50 [1] of 4 nM, an IC50 (Steroid 21-hydroxylase) of at least 10000 nM and an IC50 [2] of 17 nM.
Molecule O=C(c1cccnc1)N1CCN(c2ccc(/C=C/c3cc(Cl)cc(Cn4ccnc4)c3)cc2)CC1 has an IC50 [1] of 4.9 nM, an IC50 (Steroid 21-hydroxylase) of at least 10000 nM and an IC50 [2] of 26 nM.
